pIC50: −log10 of the molar value. Activity calls are given as the source filed them. No cut-off for these calls is given here.
Columns and labels:
Acetylcholinesterase = Acetylcholinesterase (Electrophorus electricus, UniProt O42275); assay: Inhibition of electric eel AChE using acetylthiocholine iodide as substrate measured every minute for fifteen minutes by Ellman's method
[1] = target: Acetylcholinesterase (Electrophorus electricus) (UniProt O42275); assay: Inhibition of electric eel AChE at 200 uM using acetylthiocholine iodide as substrate measured every minute for fifteen minutes by Ellman's method
Chain of Acetylcholinesterase (Electrophorus electricus) (O42275 24-633 limits assumed): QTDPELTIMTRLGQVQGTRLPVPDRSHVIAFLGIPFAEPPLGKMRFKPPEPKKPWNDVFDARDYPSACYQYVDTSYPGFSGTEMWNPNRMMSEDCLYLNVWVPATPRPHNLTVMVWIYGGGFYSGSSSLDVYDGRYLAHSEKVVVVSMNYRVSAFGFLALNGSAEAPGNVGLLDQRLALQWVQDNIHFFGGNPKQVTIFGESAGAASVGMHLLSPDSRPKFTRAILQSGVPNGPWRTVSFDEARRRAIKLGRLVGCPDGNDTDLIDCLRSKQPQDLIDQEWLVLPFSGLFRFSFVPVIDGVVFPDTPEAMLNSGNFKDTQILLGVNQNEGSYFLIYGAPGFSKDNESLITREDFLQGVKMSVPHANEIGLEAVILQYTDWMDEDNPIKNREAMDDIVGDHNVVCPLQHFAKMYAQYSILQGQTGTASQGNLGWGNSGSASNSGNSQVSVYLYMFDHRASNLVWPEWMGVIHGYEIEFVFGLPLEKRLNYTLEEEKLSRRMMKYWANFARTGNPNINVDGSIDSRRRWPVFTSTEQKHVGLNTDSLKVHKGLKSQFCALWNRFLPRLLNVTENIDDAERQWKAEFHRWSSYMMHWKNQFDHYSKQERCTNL

Chain of Acetylcholinesterase (O42275 whole entry): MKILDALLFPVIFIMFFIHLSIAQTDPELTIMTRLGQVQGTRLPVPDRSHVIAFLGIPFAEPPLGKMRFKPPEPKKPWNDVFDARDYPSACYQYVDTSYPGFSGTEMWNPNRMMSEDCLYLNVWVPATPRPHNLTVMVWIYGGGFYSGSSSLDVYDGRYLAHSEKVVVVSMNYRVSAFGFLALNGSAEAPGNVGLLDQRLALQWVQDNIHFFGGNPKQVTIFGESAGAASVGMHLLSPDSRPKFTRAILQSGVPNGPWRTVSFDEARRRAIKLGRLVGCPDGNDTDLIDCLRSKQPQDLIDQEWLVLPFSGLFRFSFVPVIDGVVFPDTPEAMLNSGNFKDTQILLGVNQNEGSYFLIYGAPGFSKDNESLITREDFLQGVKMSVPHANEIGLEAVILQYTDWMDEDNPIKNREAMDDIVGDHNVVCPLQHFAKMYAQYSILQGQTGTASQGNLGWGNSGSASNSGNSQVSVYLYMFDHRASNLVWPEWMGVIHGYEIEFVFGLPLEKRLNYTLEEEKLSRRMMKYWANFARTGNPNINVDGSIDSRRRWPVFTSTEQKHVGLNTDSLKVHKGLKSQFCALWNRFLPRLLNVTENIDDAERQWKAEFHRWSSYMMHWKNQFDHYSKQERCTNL

Row | Structure (SMILES) | pIC50 (Acetylcholinesterase) | inhibition [1]
1 | CNc1ccc(COC)cc1-c1cc2c(cc1CO)OCO2 | 5.05 | 
2 | COc1cc([C@@H]2[C@H](O)CC=C3CCN(C)[C@H]32)cc(OC)c1OC |  | inactive
3 | CO[C@H]1C=C[C@@]2(c3ccc(O)cc3)CCN[C@H]2C1 |  | inactive

— ChEMBL document CHEMBL3992494, “Amaryllidaceae alkaloids with new framework types from Zephyranthes candida as potent acetylcholinesterase inhibitors” (Eur J Med Chem, 2017)
